Results reported in US8304439B1, “Use of quaternary pyridinium salts as a therapeutic or preventing agent against ionizing radiation-induced damage” (priority 2007, dated 2012).

What was measured:
[1] = test system: male BALB/c mice, whole body irradiation 7.5 Gy; experiment: Survival of mice during 30 days following whole body gamma irradiation, compounds given before or after irradiation (Example 2); assay type: in vivo; details: 7.5 Gy whole body, from day 7 before or day 7 after irradiation until day 30
Description: (§1) The survival rate of irradiated mice treated with the compounds in comparison control was used as a measure of a radioprotective effect.
The methodology followed was as described in B Hou. Z. W. Xu, C. W. Yang, Y. Gao, S. F. Zhao, C. G. Zhang: Protective effects of inosine on mice subjected to lethal total-body ionizing irradiation. J Radiat Res 48, 57-62, 2007. In brief, six-to-eight-week old male BALB/c mice obtained from the Nofer Institute of Occupational Medicine, ? ódź, Poland were used for the experiments. Whole bodies of the animals were exposed to a single irradiation (at the Military Institute of Chemistry and Radiometry) with gamma rays from the ^60Co source at 7.2 Gy/h mean dose rate to obtain the absorbed dose of 7.5 Gy per mouse. The absorbed doses were verified using thermoluminescent dosimeters implanted subcutaneously in the middle abdominal region. All the mice were maintained under specific pathogen-free conditions. Survival of the mice was assessed during 30 days following the irradiation.
The mice were divided into irradiated control group receiving no treatment, irradiated treatment group receiving MNA, irradiated treatment group receiving DMP, and irradiated treatment group receiving MAP. Each of the treatment groups was divided into two subgroups, the first group in which the animals received the tested compounds starting from day 7 before the irradiation, and the second group in which the animals received the tested compounds starting from day 7 after the irradiation.
The compounds were given dissolved in drinking water at 100 mg/kg of body weight/24 h (DMP and MAP) and 500 mg/kg of body weight (MNA)/24 h until day 30 post irradiation.

[2] = test system: mice irradiated with lethal dose of about 7.5 Gy; experiment: Survival rate of mice after whole body irradiation, MNA given before irradiation (Example 1); assay type: in vivo; details: whole body irradiation 7.5 Gy; 300 mg/kg per day in drinking water from the 7th day preceding irradiation, continued after; untreated group approximately 20%; FIG. 1
Protocol: as §1
The methodology used was as described by Cheda et al., Radiation Research 2004, 161, 335 (animals and irradiation).
The survival rate of mice irradiated with lethal dose of about 7.5 Gy was tested. The treatment group received 1-methylnicotinamide chloride (MNA) in drinking water at an average dose of 300 mg/kg per day every day starting from the 7th day preceding the irradiation day. The administration was continued after irradiation. The control group received no treatment.

[3] = test system: murine leukemia L1210; details: cited from earlier work; for cytotoxicity in cultured leukemia cells: comparison among the three salts
[4] = 100 mg/kg/24 h in drinking water, FIG. 3, FIG. 4

Row | Compound | protective activity (survival of mice) ([1]; 500 mg/kg/24 h in drinking water, FIG. 2) | survival rate of mice [2] | concentration at which activity was observed ([3]; L1210 cells) | cytotoxicity in cultured leukemia cells [3] | protective activity (survival of mice) [1, 4]
1 | C[n+]1cccc(C(N)=O)c1 [MNA, 1-methylnicotinamide chloride] | exert their protective activity both when administered prior irradiation and when administered after irradiation | about 50% | observed only at very high concentration | several thousands times lower | –
2 | CC(=O)c1ccc[n+](C)c1.[Cl-] [MAP, 1-methyl-3-acetylpyridinium chloride] | – | – | – | several thousands times lower | exert their protective activity both when administered prior irradiation and when administered after irradiation
3 | Cc1cc[n+](C)cc1.[Cl-] [DMP, 1,4-dimethylpyridinium chloride] | – | – | – | – | exert their protective activity both when administered prior irradiation and when administered after irradiation
4 | C[n+]1cccc([N+](=O)[O-])c1.[Cl-] [3-nitro-1-methylpyridinium chloride, 1-methyl-3-nitropyridinium chloride, reference compound] | – | – | – | highest cytotoxicity | –
